What was measured:
[1] = system: Staphylococcus aureus ATCC 25923; set-up: method as in PMID 31581500; conditions: planktonic culture, previous study ref 65; cited from earlier work
[2] = system: Pseudomonas aeruginosa ATCC 9027; set-up: method as in PMID 31581500; conditions: biofilm, previous study ref 65; cited from earlier work
[3] = system: E. coli ML-35 (ATCC 43827)
From the text: (§1) The permeabilization of E. coli ML-35 (ATCC 43827) membranes was studied for selected compounds (A4, B2, C2, B7, and C7) to compare their activity and membrane disruption over time. […] For OM and IM permeabilization, CENTA and ONPG were used, respectively. The permeabilization of OM causes the release of periplasmic β-lactamase, which hydrolyzes CENTA’s β-lactam ring to form a chromophore, 2-nitro-5-thiobenzoate (TNB) anion, while the disruption of IM results in the release of β-galactosidase, which hydrolyzes ONPG into galactose and a chromophore, ortho-nitrophenol (ONP). Both products of enzymatic reaction absorb light at 405 nm.
The MICs were determined by the broth microdilution method according to the Clinical and Laboratory Standard Institute guidelines. For this purpose, initial inoculums of bacteria (5 × 10^5 CFU/mL) in MHB and yeasts (2 × 10^3 CFU/mL) in RPMI-1640 with 2% D-glucose were exposed to the ranging concentration of lipopeptides (0.5–256 μg/mL) and incubated at 37 °C for 18 h and 24 h, respectively. The experiments were conducted on 96-well microtiter polystyrene plates (Kartell, Noviglio, Italy). The growth was assessed visually after incubation, and the MIC was assumed as the lowest peptide concentration at which a noticeable growth of microorganisms was inhibited. All experiments were conducted in triplicate.
Inner and outer membranes permeabilization kinetics were evaluated using Escherichia coli ML-35 (ATCC 43827) and chromogenic substrates—CENTA (BioVision, Milpitas, CA, USA) and o-nitrophenyl-β-d-galactopyranoside (ONPG) (Sigma-Aldrich, Steinheim, Germany), as described previously. To examine OM permeabilization, CENTA was used as a β-lactamase substrate. In effect of OM permeabilization, the enzyme can hydrolyze CENTA’s β-lactam ring. The resulting color change (2-nitro-5-thiobenzoate anion, TNB^-) could be measured spectrophotometrically at 405 nm. The IM permeabilization was monitored with ONPG, which is a chromogenic β-galactosidase substrate. The product of this reaction ([…]) was measured spectrophotometrically at 405 nm (Multiskan GO Microplate Spectrophotometer, Thermo Fisher Scientific, Vantaa, Finland). […] Bacteria were incubated in lysogeny broth medium (LB; Biocorp, Warszawa, Poland) for 24 h at 37 °C. Subsequently, the cells were diluted in a fresh LB medium and incubated at 37 °C up to a mid-log phase (ca. 3 h). The culture was centrifuged (3 min, 1100× g) and rinsed twice with a PBS. The bacteria were resuspended in PBS up to a concentration of 5 × 10^6 CFU/mL. The final concentration of ONPG and CENTA was 1.5 mM and 0.15 mM, respectively. The ONPG/CENTA in PBS (Sigma-Aldrich, Steinheim, Germany) was used as a negative control. […] Readings were taken every 15 min for 3 h at 37 °C [125, 142, 143, 144]. Experiments were performed in triplicate on 96-well flat bottom microtiter polystyrene plates.

[4] = system: E. coli ML-35 (ATCC 43827); experiment: Outer membrane (OM) permeabilization kinetics, CENTA; type: cell-based, Escherichia coli; conditions: over 3 h, 2 µg/mL (MIC)
From the text: as §1
Inner and outer membranes permeabilization kinetics were evaluated using Escherichia coli ML-35 (ATCC 43827) and chromogenic substrates—CENTA (BioVision, Milpitas, CA, USA) and o-nitrophenyl-β-d-galactopyranoside (ONPG) (Sigma-Aldrich, Steinheim, Germany), as described previously. To examine OM permeabilization, CENTA was used as a β-lactamase substrate. In effect of OM permeabilization, the enzyme can hydrolyze CENTA’s β-lactam ring.

C14-KKC-NH2 [Compound C14-KKC-NH2]
MIC S. aureus ATCC 25923 [1]: 32 µg/mL

C12-KKC-NH2 [Compound C12-KKC-NH2]
MBEC P. aeruginosa ATCC 9027 [2]: > 512

polymyxin B [reference compound]
MIC E. coli ML-35 (ATCC 43827) [3]: 2 µg/mL | increase of absorbance at 405 nm, OM permeabilization [4]: ca. 0.25 AU

— paper PMC8036666, “Biological and Physico-Chemical Characteristics of Arginine-Rich Peptide Gemini Surfactants with Lysine and Cystine Spacers” (International Journal of Molecular Sciences, 2021)
